Where “and” joins values, the source holds several entries; their conditions need not be identical. Identical values can stand only once.
SMILES	melting point
Cl/C=C/Cl [(E)-1,2-Dichloroethene]	-50 °C
[O-]/[N+](=N\c1ccccc1)c1ccc(/N=N/c2ccccc2)cc1 [(E)-1-phenyl-2-{4-[(Z)-phenyl-NNO-azoxy]phenyl}diazene]	131 °C
O=C(O)/C(=C/c1ccccc1[N+](=O)[O-])c1ccccc1 [(E)-2-phenyl-3-(2-nitrophenyl)propenoic acid]	198 °C
c1ccc(/N=N/c2ccccc2)cc1 [(E)-Diphenyldiazene]	68.5 °C
CC(C)(C)OC(=O)N1CCS[C@@H]1C(=O)O [(R)-3-boc-thiazolidine-2-carboxylic acid]	92 °C
CC(C)(C)OC(=O)N1CCS[C@H]1C(=O)O [(S)-3-boc-thiazolidine-2-carboxylic acid]	92 °C
CN1CCC[C@H]1c1cccnc1 [(S)-nicotine]	-79 °C
[2H]OC(=O)C([2H])([2H])[2H] [(~2~H_4_)Acetic acid]	15.5 °C
[2H]C([2H])([2H])[2H] [(~2~H_4_)Methane]	-183 °C
[2H]OC([2H])([2H])C([2H])([2H])[2H] [(~2~H_5_)Ethan(~2~H)ol]	-114 °C
[2H]OC([2H])([2H])C([2H])(O[2H])C([2H])([2H])O[2H] [(~2~H_5_)Propane-1,2,3-(~2~H_3_)triol]	20 °C
[2H]C([2H])([2H])C(=O)C([2H])([2H])[2H] [(~2~H_6_)Propan-2-one]	-93 °C
[2H]C1([2H])OC([2H])([2H])C([2H])([2H])C1([2H])[2H] [(~2~H_8_)Tetrahydrofuran]	-106 °C
[2H]c1c([2H])c([2H])c2c(c1[2H])c([2H])c([2H])c1c3c([2H])c([2H])c([2H])c([2H])c3c([2H])c([2H])c21 [(~2~H_12_)Chrysene]	255 °C
[2H]C([2H])([2H])C([2H])([2H])C([2H])([2H])C([2H])([2H])C([2H])([2H])C([2H])([2H])C([2H])([2H])C([2H])([2H])C([2H])([2H])[2H] [(~2~H_20_)Nonane]	-53 °C
[2H]C([2H])([2H])C([2H])([2H])C([2H])([2H])C([2H])([2H])C([2H])([2H])C([2H])([2H])C([2H])([2H])C([2H])([2H])C([2H])([2H])C([2H])([2H])[2H] [(~2~H_22_)Decane]	-30 °C
c1cc2c3c(cccc3c1)CC2 [Acenaphthene]	95 °C
CC(=O)Nc1nnc(S(N)(=O)=O)s1 [Acetazolamide]	260 °C
CC(=O)O [Acetic acid]	16.7 °C
CC(=O)c1ccc(S(=O)(=O)NC(=O)NC2CCCCC2)cc1 [Acetohexamide]	189 °C

SMILES	melting point
CC(=O)Cl [Acetyl chloride]	-112 °C
Cc1c(C)c(/C=CC(C)=CC=CC(/C)=CC(=O)O)c(C)cc1OC [Acitretin]	229 °C
N=c1nc(O)c2ncn(COCCO)c2[nH]1 [Acyclovir]	255 °C
O=C1[C@H]2C[C@@H]3C[C@@H](C[C@H]1C3)C2 [Adamantanone]	270 °C
Nc1ncnc2c1ncn2[C@@H]1O[C@H](COP(=O)(O)O)[C@@H](O)[C@H]1O [Adenosine monophosphate]	186 °C
C=CCOc1ccc(CC(=O)O)cc1Cl [Alclofenac]	92 °C
NCCCCCC(=O)O [Aminocaproic Acid]	205 °C
Cc1c(N(C)C)c(=O)n(-c2ccccc2)n1C [Aminopyrine]	108 °C
CC(C)(C#N)c1cc(Cn2cncn2)cc(C(C)(C)C#N)c1 [Anastrozole]	130 °C
Nc1ccccc1 [Aniline]	-6 °C
COc1ccc(CCN2CCC(Nc3nc4ccccc4n3Cc3ccc(F)cc3)CC2)cc1 [Astemizole]	149 °C
O=C(O)CCCCCCCC(=O)O [Azelaic Acid]	106 °C
CC[C@H]1OC(=O)[C@H](C)[C@@H](O[C@H]2C[C@@](C)(OC)[C@@H](O)[C@H](C)O2)C(C)[C@@H](O[C@@H]2O[C@H](C)C[C@H](N(C)C)[C@H]2O)[C@](C)(O)C[C@@H](C)CN(C)[C@H](C)[C@@H](O)[C@]1(C)O (some centres not stated) [Azithromycin]	114 °C
O=C(O)\C=C(/C)C [B,B-dimethylacrylic acid]	69.5 °C
CC1=C(/C=C/C(C)=C/C=C/C(C)=C/C=C/C=C(C)/C=C/C=C(C)/C=C/C2=C(C)CCCC2(C)C)C(C)(C)CCC1 [B-carotene]	183 °C (2×) and 180 °C
CCC1(CC)C(=O)NC(=O)NC1=O [Barbital]	190 °C
O=C1CC(=O)NC(=O)N1 [Barbituric acid]	248 °C
C[C@H]1C[C@H]2[C@@H]3CCC4=CC(=O)C=C[C@]4(C)[C@@]3(Cl)[C@@H](O)C[C@]2(C)[C@@]1(O)C(=O)CO [Beclomethasone]	118 °C
O=S(=O)(Cl)c1ccccc1 [Benzenesulfonyl chloride]	15 °C
O=C(C(=O)c1ccccc1)c1ccccc1 [Benzil] [listing 1 of 2 here]	95 °C

SMILES	melting point
O=C(C(=O)c1ccccc1)c1ccccc1 [Benzil] [listing 2 of 2 here]	94.5 °C
O=C(O)c1ccccc1 [Benzoic Acid]	122 °C
O=C(O)c1ccccc1 [Benzoic acid]	122 °C
CC(C)(Oc1ccc(CCNC(=O)c2ccc(Cl)cc2)cc1)C(=O)O [Bezafibrate]	186 °C
c1ccc(CCc2ccccc2)cc1 [Bibenzyl]	52 °C
BrC(Br)Br [Bromoform]	9 °C
CCCCNc1cc(C(=O)O)cc(S(N)(=O)=O)c1Oc1ccccc1 [Bumetanide]	230 °C
C=CCC1(CC(C)C)C(=O)NC(=O)NC1=O [Butalbital]	138 °C
CCCCN [Butan-1-amine]	-49 °C
CC(O)C(C)O (configuration not stated) [Butane-2,3-diol]	25 °C
C=C(C)C(=O)OCCCC [Butyl methacrylate]	-50 °C
COc1cc2c(c(OC)c1OC)-c1ccc(OC)c(=O)cc1[C@@H](NC(C)=O)CC2 [Colchicine]	156 °C
N#CCC(=O)c1ccccc1 [Cyanoacetophenone]	83 °C
c1ccc2c(c1)oc1ccccc12 [Dibenzofuran]	82 °C
CCCCOC(=O)c1ccccc1C(=O)OCCCC [Dibutyl phthalate]	-35 °C
C1=CC2C(C1)[C@@H]1C=C[C@H]2C1 (some centres not stated) [Dicyclopentadiene]	32.5 °C
CCOC(=O)c1ccccc1C(=O)OCC [Diethyl phthalate]	-3 °C
COC(=O)c1ccccc1C(=O)OC [Dimethyl phthalate]	2 °C
O=c1[nH]c2ccccc2n1CCCN1CCC(n2c(=O)[nH]c3cc(Cl)ccc32)CC1 [Domperidone]	242 °C

Continued, values first:

melting point	SMILES
-49 °C	CCCCN [Butylamine]
160 °C	CC(=O)OCC1=C(C(=O)O)N2C(=O)[C@@H](NC(=O)Cc3cccs3)[C@H]2SC1 [Cefalotin]
-63 °C	ClC(Cl)Cl [Chloroform]
255 °C	c1ccc2c(c1)ccc1c3ccccc3ccc21 [Chrysene] [listing 1 of 2 here]
253 °C	c1ccc2c(c1)ccc1c3ccccc3ccc21 [Chrysene] [listing 2 of 2 here]
130 °C	Clc1cccc(Cl)c1N=C1NCCN1 [Clonidine]
148 °C	Clc1ccccc1C(c1ccccc1)(c1ccccc1)n1ccnc1 [Clotrimazole]
212 °C	CC(=O)C=C(C)[O][Co]([O]C(C)=CC(C)=O)[O]/C(C)=C\C(C)=O [Cobalt(3+) tris[(2Z)-4-oxopent-2-en-2-olate]]
21 °C	OC1CCCCC1 [Cyclohexanol]
-104 °C	C1=CCCCC1 [Cyclohexene]
-27 °C	C1=CC=CC=CC=C1 [Cycloocta-1,3,5,7-tetraene]
-97.2 °C	C1=CCC=C1 [Cyclopenta-1,3-diene]
-51 °C	O=C1CCCC1 [Cyclopentanone]
212 °C	Nc1ccn([C@@H]2O[C@H](CO)[C@@H](O)[C@@H]2O)c(=O)n1 [Cytarabine]
167 °C	OC[C@@H](O)[C@@H](O)[C@H](O)[C@H](O)CO [D-Mannitol]
82 °C	O=C[C@H](O)[C@H](O)[C@H](O)CO [D-Ribose]
104 °C	OC[C@@H](O)[C@H](O)[C@@H](O)CO [D-Xylitol]
108 °C	OC[C@H]1O[C@](O)(CO)[C@@H](O)[C@@H]1O [D-fructose]
145 °C	C[C@@H](O)[C@H](O)[C@H](O)[C@@H](O)C=O [D-fucose]

melting point	SMILES
99 °C	OC[C@@H](O)[C@@H](O)[C@H](O)[C@@H](O)CO [D-sorbitol]
7 °C	CCCCCCCCCCO [Decan-1-ol]
-30 °C and -29.7 °C	CCCCCCCCCC [Decane]
116 °C	O=C(O)c1ccc(-n2nc(-c3ccccc3O)nc2-c2ccccc2O)cc1 [Deferasirox]
130 °C	O=C(O)CCc1ccc(O)cc1 [Desaminotyrosine]
236 °C	NC(Cc1cc(I)c(Oc2cc(I)c(O)c(I)c2)c(I)c1)C(=O)O (configuration not stated) [Dextrothyroxine]
39 °C	CC(C)(C)[SiH](Cl)C(C)(C)C [Di-tert-butyl(chloro)silane]
157 °C	O=C(O)Cc1ccccc1Nc1c(Cl)cccc1Cl [Diclofenac]
162 °C	O=c1nc[nH]c2c1ncn2[C@H]1CC[C@@H](CO)O1 [Didanosine]
-10 °C	CCOC(=O)/C=C\C(=O)OCC [Diethyl (2Z)-but-2-enedioate]
216 °C	O=C(O)c1cc(-c2ccc(F)cc2F)ccc1O [Diflunisal]
231 °C	COc1ccc([C@@H]2Sc3ccccc3N(CCN(C)C)C(=O)[C@@H]2OC(C)=O)cc1 [Diltiazem]
-105 °C	COCOC [Dimethoxymethane]
104 °C	COC(=O)/C=C/C(=O)OC [Dimethyl (2E)-but-2-enedioate]
18.4 °C and 18.5 °C	CS(C)=O [Dimethyl sulfoxide]
53 °C	c1ccc(Nc2ccccc2)cc1 [Diphenylamine]
-35 °C	C=CCCCCCCCCCC [Dodec-1-ene]
29 °C	CCCCCCCCCCCCN [Dodecan-1-amine]
-9.6 °C	CCCCCCCCCCCC [Dodecane]

— the Bradley open melting point set (2014)
